Measured values published in publication PMC5447021, “TNF Lectin-Like Domain Restores Epithelial Sodium Channel Function in Frameshift Mutants Associated with Pseudohypoaldosteronism Type 1B” (Frontiers in Immunology, 2017).
Entries after “also recorded” stand apart in the source; their conditions may differ.

Key:
[1] = tested on: αI68fsβγ-ENaC; assay: Whole-cell patch clamp, αI68fs + WT βγ; type: cell-based, human
Method: (§1) Point mutations of α-, β-, γ- and δ-hENaC and PHA1B frameshift mutations of α-hENaC were prepared with the QuikChange Lightning Site-Directed Mutagenesis Kit (Agilent Technologies, CA, USA). Mutagenic primers were designed individually with the Primer Design Program provided on the producer’s website or for the frameshift mutations the same base changes as reported in patients (see Table 2) were performed. Primers were ordered from Sigma-Aldrich, Vienna, Austria.
(§2) HEK-293 cells were transfected 1 day after cell seeding using X-tremeGENE HP DNA transfection reagent (Roche Diagnostics, Mannheim, Germany) according to the manufacturer’s protocol. A set of WT or mutant αβγ- or δβγ-hENaC, or α-, β-, γ-, or δ-hENaC alone was used, and the ratio of DNA to transfection reagent was 1:3. The expression was highest 48–72 h after transfection.
(§3) Electrophysiological experiments were performed as described in detail by Shabbir et al. ([16]). […] Currents were recorded with the patch clamp method in the whole-cell mode. The chamber contained 1 ml of the bath solution of the following composition (in mM): 145 NaCl, 2.7 KCl, 1.8 CaCl2, 2 MgCl2, 5.5 glucose, and 10 HEPES, adjusted to pH 7.4 with 1 M NaOH solution. Micropipettes were pulled from thin-walled borosilicate glass capillaries (Harvard Apparatus, Holliston, MA, USA) with a DMZ Zeitz Puller to obtain electrode resistances ranging from 2 to 5 MΩ. […]

[2] = tested on: αT169fs (co-expressed with βγ-ENaC); assay: Whole-cell patch clamp, αT169fs + WT βγ; type: cell-based, human; settings: read-out: EC50, solnatide, HEK-293, whole-cell, -100 mV, n = 9
Method: as §1, §2, §3

[3] = tested on: αE272fs (co-expressed with βγ-ENaC); assay: Whole-cell patch clamp, αE272fs + WT βγ; type: cell-based, human; settings: read-out: EC50, solnatide, HEK-293, whole-cell, -100 mV, n = 5, p < 0.001 vs WT
Method: as §1, §2, §3

[4] = tested on: αY447fs (co-expressed with βγ-ENaC); assay: Whole-cell patch clamp, αY447fs + WT βγ; type: cell-based, human; settings: read-out: EC50, solnatide, HEK-293, whole-cell, -100 mV, n = 7
Method: as §1, §2, §3

[5] = tested on: βγ-ENaC; assay: Whole-cell patch clamp, WT βγ-ENaC; type: cell-based, human; settings: HEK-293, 200 nM solnatide, n = 3
Method: as §2
as §3, with “MΩ. The pipette solution contained (in millimolars): 135 potassium methane sulfonate, 10 KCl, 6 NaCl, 1 Mg2ATP, 2 Na3ATP, 10 HEPES, and 0.5 EGTA, adjusted to pH 7.2 with 1 M KOH solution. Chemicals for pipette and bathing solutions were supplied by Sigma-Aldrich (Vienna, Austria). Electrophysiological measurements were carried out with an Axopatch 200B patch clamp amplifier (Axon Instruments, CA, USA).” for “MΩ.”

[6] = tested on: α-ENaC frameshift PHA1B mutants; assay: Whole-cell patch clamp, all α-ENaC PHA1B frameshift mutants + WT βγ; type: cell-based, human; settings: for Restoration of current by solnatide (words): all 10 frameshift mutants, 200 nM solnatide (Figure 4B), n = 3–11
Method: as §1, §2
Electrophysiological experiments were performed as described in detail by Shabbir et al. ([16]). […] Currents were recorded with the patch clamp method in the whole-cell mode. The chamber contained 1 ml of the bath solution of the following composition (in mM): 145 NaCl, 2.7 KCl, 1.8 CaCl2, 2 MgCl2, 5.5 glucose, and 10 HEPES, adjusted to pH 7.4 with 1 M NaOH solution. Micropipettes were pulled from thin-walled borosilicate glass capillaries (Harvard Apparatus, Holliston, MA, USA) with a DMZ Zeitz Puller to obtain electrode resistances ranging from 2 to 5 MΩ. The pipette solution contained (in millimolars): 135 potassium methane sulfonate, 10 KCl, 6 NaCl, 1 Mg2ATP, 2 Na3ATP, 10 HEPES, and 0.5 EGTA, adjusted to pH 7.2 with 1 M KOH solution. Chemicals for pipette and bathing solutions were supplied by Sigma-Aldrich (Vienna, Austria). Electrophysiological measurements were carried out with an Axopatch 200B patch clamp amplifier (Axon Instruments, CA, USA). Capacity transients were canceled, and series resistance was compensated. Whole-cell currents were filtered at 5 kHz and sampled at 10 kHz. Data acquisition and storage were processed directly to a PC equipped with pCLAMP 10.2 software (Axon Instruments, CA, USA). […]

[7] = tested on: A549 cells; settings: cited from earlier work
[8] = tested on: δ-ENaC; settings: HEK-293, 5 and 10 min; returns after 1 h; cited from earlier work

C[C@@H]1NC(=O)CNC(=O)[C@H](CCC(=O)O)NC(=O)[C@@H]2CCCN2C(=O)[C@H]([C@@H](C)O)NC(=O)[C@H](CCC(=O)O)NC(=O)[C@H](CCCNC(=N)N)NC(=O)[C@H](CCC(N)=O)NC(=O)CNC(=O)[C@@H](N)CSSC[C@@H](C(=O)O)NC(=O)[C@H](Cc2ccc(O)cc2)NC(=O)[C@H](Cc2c[nH]c3ccccc23)NC(=O)[C@@H]2CCCN2C(=O)[C@H](CCCCN)NC(=O)[C@H](C)NC(=O)[C@H](CCC(=O)O)NC1=O [solnatide, L-cysteine, L-cysteinylglycyl-L-glutaminyl-L-arginyl-L-α-glutamyl-L-threonyl-L-prolyl-L-α-glutamylglycyl-L-alanyl-L-α-glutamyl-L-alanyl-L-lysyl-L-prolyl-L-tryptophyl-L-tyrosyl-, cyclic (1→17)-disulfide]
EC50 ([1]; read-out: EC50, solnatide, αI68fs + WT βγ, HEK-293, whole-cell, -100 mV, n = 9): 73.4 ± 13.4 nM
Effect of solnatide on current (words) ([1]; αI68fsβγ-ENaC, HEK-293): induced a current increase in αI68fsβγ-ENaC
EC50 [2]: 58.3 ± 5.2 nM
EC50 [3]: 75.6 ± 5.4 nM
EC50 [4]: 57.2 ± 4.8 nM
Effect of solnatide on current (words) [5]: small current increase in WT βγ-ENaC; also recorded: can activate βγ-ENaC marginally
Restoration of current by solnatide (words) [6]: up to or even higher than WT control current in absence of solnatide; also recorded: restored the amiloride-sensitive current in all these frameshift mutants to WT or higher levels
Restoration of current by solnatide (words) ([6]; listed as Solnatide): restored function in α-ENaC frameshift mutants to current density levels of wild type ENaC or higher
Concentration at which maximum current activation was reached ([6]; solnatide, frameshift mutants, HEK-293): 200 nM
Increase in single channel parameters after PNGase F ([7]; A549 cells, PNGase F pretreated): completely abolished in PNGase F pretreated cells
Single channel open probability, mean open time, number and duration of bursts ([7]; A549 cells): significantly increased
Effect on current, A549 cells ([7]; endogenous α-, β-, γ-, δ-subunits): current activating effect
Membrane abundance, solnatide [8]: significant statistically
